Measurements: publication PMC9608142, “Population pharmacokinetic analysis, renal safety, and dosing optimization of polymyxin B in lung transplant recipients with pneumonia: A prospective study” (Frontiers in Pharmacology, 2022)
Where two headings read alike, the source gives them in different places. Bridge positions count the residues as written; N and C are the ends. Square brackets hold non-standard residues; d marks the D form. Peptide text beside a SMILES is read from it. * marks the point of attachment. X1 = CC[C@H](C)CCCCC(=O)*; Dab = NCC[C@H](N)C(=O)O

What was measured:
[1] = Population pharmacokinetic analysis (NONMEM) of polymyxin B plasma concentrations in lung transplant recipients; type: in vivo, human
Description: (§1) This prospective study was approved by the Ethical Committees of the affiliated Wuxi People’s Hospital of Nanjing Medical University, China (KS202002), in accordance with the Declaration of Helsinki. The informed consent was obtained from each patient or his/her legal representatives. Adult lung transplant recipients receiving polymyxin B sulfate against confirmed MDR Gram-negative bacterial infections at the affiliated Wuxi People’s Hospital of Nanjing Medical University, from January 2020 to December 2021, were included in this study. The inclusion criteria were as follows: 1) ≥18 years old; 2) diagnosis of pneumonia; 3) receiving polymyxin B therapy for at least 3 days; 4) having at least one plasma concentration of polymyxin B. The exclusion criteria were as follows: 1) allergic or intolerant to polymyxin B; 2) died within 24 h after being treated with polymyxin B.
(§2) The decision to administer polymyxin B (sulfate, Polymyxin B for Injection, Shanghai Number one Biochemical and Pharmaceutical, Shanghai, China) and its medication, including the amount, dosing interval, administration route, and treatment duration, were decided by the attending physician. Generally, the loading dose of 2.0–2.5 mg/kg, and the maintenance dose of 1.25–1.5 mg/kg given every 12 h infused over 1 h was recommended according to the guideline for optimizing polymyxins ([Tsuji et al., 2019]). In addition, inhalation of polymyxin B sulfate (25 mg q12h) was combinedly used.
All the blood samples were collected at least 48 h after initiating polymyxin B ([Tsuji et al., 2019]). In each patient, four blood samples were collected: 0.5 h before starting the infusion, 1, 2, and 6 h after completing the infusion, respectively. After sampling, blood samples were immediately centrifuged at 15,000 rpm for 5 min and stored at −80°C. The concentrations of polymyxin B in the blood samples were determined by a validated high-performance liquid chromatography-tandem mass spectrometry (LC-MS/MS) assay ([Thomas et al., 2012]). The calibration range of polymyxin B by the method was 0.1–30 μg/ml. The method validations including selectivity, recovery, precision, accuracy, matrix effect, calibration curve, and stability met the requirement of FDA principles.
Nonlinear mixed-effects modeling (NONMEM) program (version 7.4, Icon Development Solutions, Ellicott City, MD, United States) and Pirana (version 2.9.7) was used to perform PK analysis of polymyxin B. R (Version 3.6.1) was used to analyze the NONMEM output. The first-order conditional estimation with the interaction between inter-patient variability and residual variability was used for model development.
One- or two-compartment structural model with first-order elimination were explored for the concentration-time profiles. Visual inspection of diagnostic plots and goodness-of-fit criteria, condition number, and improvement of the objective function value (OFV) were performed to evaluate the base model. The pharmacokinetic parameters used for this study were clearance (CL) and volume of distribution (V). Between-subject variability (BSV) was assessed using the exponential model (Eq. 1). Pi=P×EXP(ETA( ηi)) (1) Pi was the individual patient PK parameter; P was the typical value; ηi was the interpatient random variation.
Residual variability was assessed by additive (Eq. 2), proportional (Eq. 3), or combined (additive plus proportional) (Eq. 4) error models, respectively. The optimal one was chosen based on the decrease in OFV. Y=F+EPS (1) (2) Y=F+F×EPS (1) (3) Y=F+F×EPS (1)+EPS(2) (4) Y was the individual observed concentration; F was the individual predictive concentration; EPS was the residual random variation.
Relationships between the potential covariates and individual PK parameters were examined visually. […]

[2] = cited from earlier work
Description: Supplement DataSheet1.docx, table 2: Table S2. […] The urinary recovery of polymyxin B is low and non-renal clearance is considered the major route of the clearance of polymyxin B ([Tsuji et al., 2019]), but it undergoes extensive reabsorption by renal tubular cells ([Nang et al., 2021]). […] The ratio of the area of unbound concentration-time curve to the MIC (fAUC/MIC) is the best PK/PD index predicting bacterial killing for polymyxins ([Dudhani et al., 2010a]; [Dudhani et al., 2010b]; [Cheah et al., 2015]). The fAUC/MIC value ≥20 at various MICs (0.5–2 mg/L) was used as the target ([Sandri et al., 2013]), where f (assumed to be 0.42) is the unbound fraction of polymyxin B ([Sandri et al., 2013]). The probability of target attain ... || (+ 2 further places)

[3] = parenteral polymyxin B, mouse infection studies; ref Nang et al., 2021; cited from earlier work
Description: The urinary recovery of polymyxin B is low and non-renal clearance is considered the major route of the clearance of polymyxin B ([Tsuji et al., 2019]), but it undergoes extensive reabsorption by renal tubular cells ([Nang et al., 2021]).

[4] = test system: carbapenem-resistant organisms (A. baumannii, P. aeruginosa, K. pneumoniae, E. cloacae); experiment: Clinical treatment efficacy and microbiological efficacy in lung transplant recipients with pneumonia; type: in vivo, human
Description: as §1
The demographic characteristics, laboratory data, pathogenic bacteria, medication information, and adverse events of polymyxin B sulfate were acquired from the patients’ medical records. Clinical success was defined as improvement of clinical symptoms and parameters including body temperature, biochemistry indicators of infection (white cell count ≤ 10^9, C-reactive protein ≤10 mg/L, procalcitonin <0.05 ng/ml, and erythrocyte sedimentation rate <15 mm/h), and clinician-documented improvement at the end of treatment ([Yu et al., 2022]). RIFLE (Risk, Injury, Failure, Loss of function, and End-stage kidney disease) criteria were used to assess the acute kidney injury (AKI) caused by polymyxin B ([Han et al., 2022]). The definition of nephrotoxicity caused by polymyxin B was further confirmed using the Naranjo criteria. Hyperpigmentation is defined as the darkening of the skin’s natural color, usually due to an increase in melanin deposition in the epidermis or dermis ([Lu and Hou, 2020]).
as §2

P. aeruginosa = conditions: thigh infection model, ref Cheah et al., 2015; cited from earlier work
Description: (§3) This is the first study to simulate the PTA and AUCss,24h of different dosage regimens in lung transplant patients. In vitro and animal studies pointed out that fAUC/MIC is the PK/PD index that is best correlated with the efficacy of polymyxins ([Tsuji et al., 2019]). In the thigh infection model, the fAUC/MIC values of colistin for 2log10 bacterial killings were approximately 20 for P. aeruginosa and Acinetobacter Baumannii ([Cheah et al., 2015]). Therefore, considering the similar molecular structures and in vitro activity of colistin and polymyxin B, the fAUC/MIC ≥20 was determined as the P ...

Acinetobacter Baumannii = conditions: thigh infection model, ref Cheah et al., 2015; cited from earlier work
Description: as §3

[5] = bootstrap of final model, median estimate, 1,000 replicates
[6] = adult patients, n = 35, 1 CMT, ref Manchandani et al. 2018 [29]
[7] = adult patients, n = 43, 1 CMT, ref Kubin et al. 2018 [31]
[8] = adult patients, n = 46, 2 CMT, ref Wang et al. 2020 [27]
[9] = adult patients, n = 52, 2 CMT, ref Miglis et al. 2018 [28]
[10] = adult patients, n = 52, ref Miglis et al. 2018 [28]
[11] = critically ill patients, n = 24, 2 CMT, ref Sandri et al. 2013 [22]

Molecule: CC[C@H](C)CCCCC(=O)N[C@@H](CCN)C(=O)N[C@H](C(=O)N[C@@H](CCN)C(=O)N[C@H]1CCNC(=O)[C@H]([C@@H](C)O)NC(=O)[C@H](CCN)NC(=O)[C@H](CCN)NC(=O)[C@H](CC(C)C)NC(=O)[C@@H](Cc2ccccc2)NC(=O)[C@H](CCN)NC1=O)[C@@H](C)O [polymyxin B] (X1-[Dab]T[Dab][Dab][Dab][dF]L[Dab][Dab]T; lactam 4-C)
- θCL, typical value of clearance [1, 5]: 1.72 L/h
- θV, typical value of volume of distribution [1, 5]: 14.3 L
- effect of concomitant furosemide or albumin on the PK of polymyxin B ([1]; covariate test in lung transplant recipients, limited number of patients): did not significantly affect the PK
- θV, typical value of volume of distribution ([1]; final model estimate, 1-compartment): 14.4 L
- CrCL on CL (θ1), exponential value for CrCL as covariate of CL ([1]; final model estimate, CrCL/78.49): 0.681
- clearance ([1]; human, plasma, iv, base model estimate (no covariate), read-out: TVCL, typical value of clearance (converted)): 27.5 mL/min
- clearance ([1]; human, plasma, iv, final model estimate, 1-compartment, first-order elimination, at median CrCL 78.49 ml/min, read-out: θCL, typical value of clearance (converted)): 28.7 mL/min
- clearance ([1]; human, plasma, iv, present study, lung transplant patients, n = 34, read-out: CL (PK Parameters) (converted)): 31.2 mL/min
- Vd ([1]; human, plasma, iv, base model estimate, read-out: TVV, typical value of volume): 14.6 L
- AUC ([1]; mean ± SD, 34 lung transplant recipients, AUC0-24 by linear-log trapezoidal rule from Bayesian-predicted concentrations, SD): 69660 ± 35920 ng·h/mL
- CL, typical value in PK formula ([2]; adult critically ill patients, n = 32, 1 CMT, CL = 1.59+(CrCL/80)^0.408, ref Yu et al. 2021 [26]): 1.59 L/h
- V ([2]; adult critically ill patients, n = 32, 1 CMT, ref Yu et al. 2021 [26]): 20.5 L
- CL (PK Parameters) ([2]; adult critically ill patients, n = 32, ref Yu et al. 2021 [26]): 1.75 L/h
- CL in PK formula [2, 6]: 2.5 L/h
- V [2, 6]: 34.3 L
- CL (PK Parameters), mean ([2]; adult patients, n = 35, mean, ref Manchandani et al. 2018 [29]): 2.5 L/h
- CL in PK formula [2, 7]: 2.37 L/h
- V [2, 7]: 33.4 L
- Q [2, 8]: 13.518 L/h
- V [2, 8]: 6.218 L
- V2 [2, 8]: 11.922 L
- CL, typical value in PK formula ([2]; adult patients, n = 46, 2 CMT, ×(CrCL/105.9)^0.362, ref Wang et al. 2020 [27]): 1.786 L/h
- CL (PK Parameters), median ([2]; adult patients, n = 46, median, ref Wang et al. 2020 [27]): 1.786 L/h
- Q [2, 9]: 2.32 L/h
- Vc [2, 9]: 33.77 L
- Vp [2, 9]: 78.20 L
- CL, typical value in PK formula ([2]; adult patients, n = 52, 2 CMT, ×(TBW/75)^0.75, ref Miglis et al. 2018 [28]): 2.63 L/h
- CL (PK Parameters) [2, 10]: 2.63 ± 1.41 L/h
- V (PK Parameters) [2, 10]: 33.77 ± 15.21 L
- f, unbound fraction of polymyxin B ([2]; assumed value used for fAUC/MIC, ref Sandri et al., 2013): 0.42
- effect of inhalation therapy on the exposure of polymyxin B in blood ([2]; co-inhalation 25 mg q12h, critically ill patients, ref Yu et al., 2021): did not significantly increase the exposure
- CLic [2, 11]: 2.43 mL/min/kg
- V1 [2, 11]: 0.0939 L/kg
- V2 [2, 11]: 0.330 L/kg
- CL, typical value in PK formula ([2]; critically ill patients, n = 24, 2 CMT, ×(TBW/75)^0.75, ref Sandri et al. 2013 [22]): 0.46 mL/min/kg
- urinary recovery ([2]; non-renal clearance considered the major route, ref Tsuji et al., 2019): low
- CL, typical value in PK formula ([2]; renal transplant patients, n = 50, 1 CMT, CL = 1.18×(CrCL/22.2)^0.14, ref Li et al. 2021 [14]): 1.18 L/h
- V ([2]; renal transplant patients, n = 50, 1 CMT, ref Li et al. 2021 [14]): 12.09 L
- penetration in the lungs [3]: poor penetration in the lungs
- Clinical anti-infective outcome: Failed ([4]; 5 of 34 patients, iv plus inhaled polymyxin B): 5 (14.71%)
- Clinical anti-infective outcome: Cured ([4]; 12 of 34 patients, iv plus inhaled polymyxin B, treatment 17.94 ± 7.13 days): 12 (35.29%)
- Clinical anti-infective outcome: Improved ([4]; 17 of 34 patients, iv plus inhaled polymyxin B): 17 (50%)
- patients considered of clinical cure or improved ([4]; 29 of 34 patients, end of treatment): 85.29%

Molecule: colistin
- fAUC/MIC value for 2log10 bacterial killings (P. aeruginosa): approximately 20
- fAUC/MIC value for 2log10 bacterial killings (Acinetobacter Baumannii): approximately 20
